≈ marks a conversion by molar mass, not a printed value.
What was measured:
Assay in all cases: In vitro antibiotic activity, agar dilution method (Mueller-Hinton agar, NCCLS)
Assay type in all cases: cell-based
K. pneumoniae ATCC 29665 = conditions: Klebsiella pneumoniae, ATCC29665; agar dilution, Mueller-Hinton agar; read-out: MIC for K. pneumoniae ATCC 29665
Method: (§1) To measure the antibiotic activity of the compounds prepared by Examples, antibiotic activity test in vitro was performed by agar dilution method using Mueller-Hinton agar according to the NCCLS (National Committee for Clinical Laboratory Standards. 2000. Methods for dilution antimicrobial susceptibility tests for bacteria that grow aerobiocally. Approved standard, NCCLS document M7-M5, 5th ed, vol 20, no 2. National Committee for Clinical Laboratory Standards, Wayne, Pa.). The test strain was Escherichia coli (ATCC 25922), Klebsiella pneumonia (ATCC 29665) and Pseudomonas aeriginosa (PAO1).

P. aeruginosa PAO1 = conditions: Pseudomonas aeruginosa, PAO1; agar dilution, Mueller-Hinton agar; read-out: MIC for P. aeruginosa PAO1
Method: as §1

E. coli ATCC 25922 = conditions: Escherichia coli, ATCC25922; agar dilution, Mueller-Hinton agar; read-out: MIC for E. coli ATCC 25922
Method: as §1

Row | SMILES | MIC (K. pneumoniae ATCC 29665) [µg/mL] | MIC (P. aeruginosa PAO1) [µg/mL] | MIC (E. coli ATCC 25922) [µg/mL]
1 | CN1CC(C#Cc2ccc(C3=CCN(CCC(C)(C(=O)NO)S(C)(=O)=O)CC3)cc2)C1 (stereo not drawn) [Example 39, N-hydroxy-2-methyl-4-(4-(4-((1-methylazetidin-3-yl)ethynyl)phenyl)-3,6-dihydropyridin-1(2H)-yl)-2-(methylsulfonyl)butanamide] | 8 to 16 (≈ 18 to 35.9 µM) | 8 to 16 (≈ 18 to 35.9 µM) | 8 to 16 (≈ 18 to 35.9 µM)
2 | COc1ccc(C#Cc2ccc(C3=CCN(CCC(C)(C(=O)NO)S(C)(=O)=O)CC3)cc2)cc1 (stereo not drawn) [Example 3, N-hydroxy-4-(4-(4-((4-methoxyphenyl)ethynyl)phenyl)-3,6-dihydropyridin-1(2H)-yl)-2-methyl-2-(methylsulfonyl)butanamide] | 1 to 8 (≈ 2.07 to 16.6 µM) | > 16 | > 16
3 | CC(=O)N1CC(C#Cc2ccc(C3=CCN(CCC(C)(C(=O)NO)S(C)(=O)=O)CC3)cc2)C1 (stereo not drawn) [Example 40, 4-(4-(4-((1-acetylazetidin-3-yl)ethynyl)phenyl)-3,6-dihydropyridin-1(2H)-yl)-N-hydroxy-2-methyl-2-(methylsulfonyl)butanamide] | 1 to 8 (≈ 2.11 to 16.9 µM) | 1 to 8 (≈ 2.11 to 16.9 µM) | 1 to 8 (≈ 2.11 to 16.9 µM)
4 | CC(CCN1CC=C(c2ccc(-c3ccc(CN4CCOCC4)cc3)cc2)CC1)(C(=O)NO)S(C)(=O)=O (stereo not drawn) [Example 74, N-hydroxy-2-methyl-2-(methylsulfonyl)-4-(4-(4′-(morpholinomethyl)-[1,1′-biphenyl]-4-yl)-3,6-dihydropyridin-1(2H)-yl)butanamide] | < 1 | 1 to 8 (≈ 1.9 to 15.2 µM) | < 1
5 | CC(CCN1CC=C(c2ccc(C#CCN3CCC[C@H]3CO)cc2)CC1)(C(=O)NO)S(C)(=O)=O (stereo partly drawn) [Example 17, N-hydroxy-4-(4-(4-(3-((S)-2-(hydroxymethyl)pyrrolidin-1-yl)prop-1-yn-1-yl)phenyl)-3,6-dihydropyridin-1(2H)-yl)-2-methyl-2-(methylsulfonyl)butanamide] | 8 to 16 (≈ 16.3 to 32.7 µM) | 1 to 8 (≈ 2.04 to 16.3 µM) | > 16
6 | CC(CCN1CC=C(c2ccc(-c3cccnc3)cc2)CC1)(C(=O)NO)S(C)(=O)=O (stereo not drawn) [Example 61, N-hydroxy-2-methyl-2-(methylsulfonyl)-4-(4-(4-(pyridin-3-yl)phenyl)-3,6-dihydropyridin-1(2H)-yl)butanamide] | > 16 | 1 to 8 (≈ 2.33 to 18.6 µM) | 1 to 8 (≈ 2.33 to 18.6 µM)
7 | CC(CCN1CC=C(c2ccc(-c3ccc(S(=O)(=O)N4CCC4)cc3)cc2)CC1)(C(=O)NO)S(C)(=O)=O (stereo not drawn) [Example 68, 4-(4-(4′-(azetidin-1-ylsulfonyl)-[1,1′-biphenyl]-4-yl)-3,6-dihydropyridin-1(2H)-yl)-N-hydroxy-2-methyl-2-(methylsulfonyl)butanamide] | 1 to 8 (≈ 1.83 to 14.6 µM) | 1 to 8 (≈ 1.83 to 14.6 µM) | < 1
8 | CC(CCN1CC=C(c2ccc(C#CCN3CCOCC3)cc2)CC1)(C(=O)NO)S(C)(=O)=O (stereo not drawn) [Example 25, N-hydroxy-2-methyl-2-(methylsulfonyl)-4-(4-(4-(3-morpholinoprop-1-yn-1-yl)phenyl)-3,6-dihydropyridin-1(2H)-yl)butanamide] | 1 to 8 (≈ 2.1 to 16.8 µM) | 1 to 8 (≈ 2.1 to 16.8 µM) | 1 to 8 (≈ 2.1 to 16.8 µM)
9 | CC(CCN1CC=C(c2ccc(C#CCCCCN3CCOCC3)cc2)CC1)(C(=O)NO)S(C)(=O)=O (stereo not drawn) [Example 30, N-hydroxy-2-methyl-2-(methylsulfonyl)-4-(4-(4-(6-morpholinohex-1-yn-1-yl)phenyl)-3,6-dihydropyridin-1(2H)-yl)butanamide] | 1 to 8 (≈ 1.93 to 15.5 µM) | 1 to 8 (≈ 1.93 to 15.5 µM) | < 1
10 | CCS(=O)(=O)c1ccc(-c2ccc(C3=CCN(CCC(C)(C(=O)NO)S(C)(=O)=O)CC3)cc2)cc1.Cl (stereo not drawn) [Example 73, 4-(4-(4′-(ethylsulfonyl)-[1,1′-biphenyl]-4-yl)-3,6-dihydropyridin-1(2H)-yl)-N-hydroxy-2-methyl-2-(methylsulfonyl)butanamide hydrochloride] | 1 to 8 | 1 to 8 | < 1
11 | CC(CCN1CC=C(c2ccc(C#CC#CCCO)cc2)CC1)(C(=O)NO)S(C)(=O)=O (stereo not drawn) [Example 47, N-hydroxy-4-(4-(4-(6-hydroxyhexa-1,3-diyn-1-yl)phenyl)-3,6-dihydropyridin-1(2H)-yl)-2-methyl-2-(methylsulfonyl)butanamide] | 1 to 8 (≈ 2.25 to 18 µM) | < 1 | < 1
12 | CC(CCN1CC=C(c2ccc(C#CC#Cc3ccccc3)cc2)CC1)(C(=O)NO)S(C)(=O)=O (stereo not drawn) [Example 51, N-hydroxy-2-methyl-2-(methylsulfonyl)-4-(4-(4-(phenylbuta-1,3-diyn-1-yl)phenyl)-3,6-dihydropyridin-1(2H)-yl)butanamide] | > 16 | > 16 | > 16
13 | CC(CN1CC=C(c2ccc(-c3ccccc3)cc2)CC1)(C(=O)NO)S(C)(=O)=O (stereo not drawn) [Example 76, 3-(4-([1,1′-biphenyl]-4-yl)-3,6-dihydropyridin-1(2H)-yl)-N-hydroxy-2-methyl-2-(methylsulfonyl)propanamide] | > 16 | > 16 | > 16
14 | COCCCC#Cc1ccc(C2=CCN(CCC(C)(C(=O)NO)S(C)(=O)=O)CC2)cc1 (stereo not drawn) [Example 28, N-hydroxy-4-(4-(4-(5-methoxypent-1-yn-1-yl)phenyl)-3,6-dihydropyridin-1(2H)-yl)-2-methyl-2-(methylsulfonyl)butanamide] | < 1 | 1 to 8 (≈ 2.23 to 17.8 µM) | < 1
15 | CC(CCN1CC=C(c2ccc(-c3ccsc3)cc2)CC1)(C(=O)NO)S(C)(=O)=O (stereo not drawn) [Example 70, N-hydroxy-2-methyl-2-(methylsulfonyl)-4-(4-(4-(thiophen-3-yl)phenyl)-3,6-dihydropyridin-1(2H)-yl)butanamide] | < 1 | > 16 | < 1
16 | CC(CCN1CC=C(c2ccc(-c3ccc(F)nc3)cc2)CC1)(C(=O)NO)S(C)(=O)=O (stereo not drawn) [Example 62, 4-(4-(4-(6-fluoropyridin-3-yl)phenyl)-3,6-dihydropyridin-1(2H)-yl)-N-hydroxy-2-methyl-2-(methylsulfonyl)butanamide] | 1 to 8 (≈ 2.23 to 17.9 µM) | 1 to 8 (≈ 2.23 to 17.9 µM) | < 1
17 | CC(CCN1CC=C(c2ccc(C#CC#CCCCO)cc2)CC1)(C(=O)NO)S(C)(=O)=O (stereo not drawn) [Example 46, N-hydroxy-4-(4-(4-(7-hydroxyhepta-1,3-diyn-1-yl)phenyl)-3,6-dihydropyridin-1(2H)-yl)-2-methyl-2-(methylsulfonyl)butanamide] | 1 to 8 (≈ 2.18 to 17.4 µM) | 1 to 8 (≈ 2.18 to 17.4 µM) | < 1
18 | CC(CCN1CC=C(c2ccc(C#CCCCOC(N)=O)cc2)CC1)(C(=O)NO)S(C)(=O)=O (stereo not drawn) [Example 27, 5-(4-(1-(4-(hydroxyamino)-3-methyl-3-(methylsulfonyl)-4-oxobutyl)-1,2,3,6-tetrahydropyridin-4-yl)phenyl)pent-4-yn-1-yl carbamate] | 1 to 8 (≈ 2.09 to 16.8 µM) | 1 to 8 (≈ 2.09 to 16.8 µM) | < 1
19 | CN(C)CCCC#Cc1ccc(C2=CCN(CCC(C)(C(=O)NO)S(C)(=O)=O)CC2)cc1 (stereo not drawn) [Example 20, 4-(4-(4-(5-(dimethylamino)pent-1-yn-1-yl)phenyl)-3,6-dihydropyridin-1(2H)-yl)-N-hydroxy-2-methyl-2-(methylsulfonyl)butanamide] | 8 to 16 (≈ 17.3 to 34.7 µM) | 8 to 16 (≈ 17.3 to 34.7 µM) | 1 to 8 (≈ 2.17 to 17.3 µM)
20 | CC(CCN1CC=C(c2ccc(C#CC#CCCO)c(F)c2)CC1)(C(=O)NO)S(C)(=O)=O (stereo not drawn) [Example 43, 4-(4-(3-fluoro-4-(6-hydroxyhexa-1,3-diyn-1-yl)phenyl)-3,6-dihydropyridin-1(2H)-yl)-N-hydroxy-2-methyl-2-(methylsulfonyl)butanamide] | 1 to 8 (≈ 2.16 to 17.3 µM) | 1 to 8 (≈ 2.16 to 17.3 µM) | < 1

Source: patent US10160724B2, “Tetrahydropyridine derivatives and their use as antibacterial agents” (Dong-A St Co., Ltd., priority 2016, dated 2018)
